Drawing on article PMC6783941, “Synthesis of Ring II/III Fragment of Kanamycin: A New Minimum Structural Motif for Aminoglycoside Recognition” (Antibiotics, 2019), this text covers 1 and 4 for two molecules.

The assay has as its target T1, ANT-(4′) (Staphylococcus aureus, UniProt P05057).
T1 construct: gene knt; pET plasmid pET-ANT-(4′) in E. coli BL21 (printed for MIC strains)
Nature of the assay: thermal shift, SYPRO Orange. It counts as binding. The note with it: Tris 10 mM pH 8.0, 0.2 mM NaCl; protein 4.4 µM and ligand 10 µM solutions mixed; blank Tm 58 ± 0.1. An excerpt: thermal shift, SYPRO Orange on ANT-(4′)

T1 sequence (P05057 whole entry): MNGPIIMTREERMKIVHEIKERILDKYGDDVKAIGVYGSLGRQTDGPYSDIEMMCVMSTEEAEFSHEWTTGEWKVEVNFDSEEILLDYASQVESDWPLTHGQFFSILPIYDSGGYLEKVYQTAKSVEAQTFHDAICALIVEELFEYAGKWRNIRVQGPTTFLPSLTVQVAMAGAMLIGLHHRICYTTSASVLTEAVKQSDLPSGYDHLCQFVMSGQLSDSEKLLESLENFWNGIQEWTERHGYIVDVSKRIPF

With `NC[C@H]1O[C@H](O[C@H]2[C@H](O)[C@@H](O[C@H]3O[C@H](CO)[C@@H](O)[C@H](N)[C@H]3O)[C@H](N)C[C@@H]2N)[C@H](O)[C@@H](O)[C@@H]1O` [compound 1, Kanamycin A], the 1 was 61.5 ± 0.1 °C.

Take `NC[C@H]1O[C@H](O[C@H]2[C@H](O)[C@@H](O)[C@H](N)C[C@@H]2N)[C@H](N)[C@@H](O)[C@@H]1O` [compound 4, 4-O-(2,6-di-Deoxy-α-D-2,6-di-amine-glucopyranosyl)-2-deoxy-streptamine]: the 4 is 61 ± 0.1 °C.
